Molecular target: T1, LiARG (recombinant arginase from L. infantum) (Leishmania infantum, UniProt A4IB49)
T1 construct: gene LINJ_35_1490; recombinant, purified
Test: urea release, colorimetric UREA CE kit, […] nm
Assay type: biochemical

`O=c1c(O)c(-c2ccc(O)c(O)c2)oc2cc(O)cc(O)c12` [quercetin] gave an IC50 of 23.2 µM.
